The values that follow come from article PMC11255338, “A deterministic, c-di-GMP-dependent program ensures the generation of phenotypically similar, symmetric daughter cells during cytokinesis” (Nature Communications, 2024).

Assay [1] has as its target T1, MalE-DmxA^WT (Myxococcus xanthus, UniProt Q1D632).
T1 construct: gene MXAN_3705; residues 223-722 (two GAF domains + GGDEF; N-terminal transmembrane domain removed), N-terminal MalE (MBP) tag kept, pMAL-c6t, E. coli Rosetta DE3; dimer by SEC
T1 sequence (Q1D632 211-710): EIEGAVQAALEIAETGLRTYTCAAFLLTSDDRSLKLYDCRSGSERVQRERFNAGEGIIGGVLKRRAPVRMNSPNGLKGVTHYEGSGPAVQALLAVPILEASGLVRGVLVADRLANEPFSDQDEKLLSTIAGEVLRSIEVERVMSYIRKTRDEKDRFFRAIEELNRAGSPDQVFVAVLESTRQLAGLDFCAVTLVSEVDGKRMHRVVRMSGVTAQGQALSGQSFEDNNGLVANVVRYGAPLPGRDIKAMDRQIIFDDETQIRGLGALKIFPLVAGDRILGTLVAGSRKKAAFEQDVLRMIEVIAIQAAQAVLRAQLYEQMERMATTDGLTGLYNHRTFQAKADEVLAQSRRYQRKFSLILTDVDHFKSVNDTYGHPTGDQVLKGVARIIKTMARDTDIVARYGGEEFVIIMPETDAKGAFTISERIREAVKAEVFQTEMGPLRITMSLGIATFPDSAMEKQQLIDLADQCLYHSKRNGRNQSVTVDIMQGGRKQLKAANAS
The assay is described as follows: diguanylate cyclase assay, pyrophosphate release (EnzChek), variable-slope inhibition fit. The assay is classed as biochemical.

Assay [2] concerns the target T2, MalE-DmxA^WT (Myxococcus xanthus, UniProt Q1D632, E614A).
T2 construct: gene MXAN_3705; residues 223-722 (two GAF domains + GGDEF; N-terminal transmembrane domain removed), N-terminal MalE (MBP) tag kept, pMAL-c6t, E. coli Rosetta DE3; dimer by SEC
The experiment in a line: bio-layer interferometry, biotinylated c-di-GMP immobilised on streptavidin sensor. Format: binding. To be noted: labelled compound (biotinylated c-di-GMP, immobilised); 10 µM protein; active-site mutant.

For assay [3], the target named is MalE-DmxA^E626A (DmxA residues 223-722 with the catalytic-site substitution E626A) (Myxococcus xanthus DK1622). The assay is described as follows: SEC; HiLoad 16/600 Superdex 200 pg; SEC buffer 50 mM Tris-HCl pH 7.2, 250 mM NaCl, 10 mM MgCl2, 5 mM DTT, 5% glycerol; column calibrated with Ribonuclease A, Carbonic Anhydrase, Conalbumin and Ferritin; oligomeric state estimated from the elution volume.

Assay [4] addresses MalE-DmxA^WT (DmxA residues 223-722: two GAF domains and the GGDEF domain) (Myxococcus xanthus DK1622). The assay is described as above.
The target of assay [5] is MalE-DmxA^GAF×2 (DmxA residues 223-547: only the two GAF domains) (Myxococcus xanthus DK1622). Described as above.
Assay [6] deals with MalE-DmxA^R615A (DmxA residues 223-722 with the I-site substitution R615A) (Myxococcus xanthus DK1622). The assay is described as above.
Assay [7] deals with T1, MalE-DmxA^WT. The assay is described as follows: diguanylate cyclase assay, pyrophosphate release (EnzChek). The assay is classed as biochemical. To be noted: 1 µM protein, 50 µM GTP.
For assay [8], the target named is T3, MalE-DmxA^WT (Myxococcus xanthus, UniProt Q1D632).
T3 construct: gene MXAN_3705; residues 223-722 (two GAF domains + GGDEF; N-terminal transmembrane domain removed), N-terminal MalE (MBP) tag kept, pMAL-c6t, E. coli Rosetta DE3; dimer by SEC
The assay is described as above. To be noted: 1 µM protein, 50 µM GTP; I-site mutant. Format: biochemical.
T3 sequence (Q1D632 entry or part of it R603A): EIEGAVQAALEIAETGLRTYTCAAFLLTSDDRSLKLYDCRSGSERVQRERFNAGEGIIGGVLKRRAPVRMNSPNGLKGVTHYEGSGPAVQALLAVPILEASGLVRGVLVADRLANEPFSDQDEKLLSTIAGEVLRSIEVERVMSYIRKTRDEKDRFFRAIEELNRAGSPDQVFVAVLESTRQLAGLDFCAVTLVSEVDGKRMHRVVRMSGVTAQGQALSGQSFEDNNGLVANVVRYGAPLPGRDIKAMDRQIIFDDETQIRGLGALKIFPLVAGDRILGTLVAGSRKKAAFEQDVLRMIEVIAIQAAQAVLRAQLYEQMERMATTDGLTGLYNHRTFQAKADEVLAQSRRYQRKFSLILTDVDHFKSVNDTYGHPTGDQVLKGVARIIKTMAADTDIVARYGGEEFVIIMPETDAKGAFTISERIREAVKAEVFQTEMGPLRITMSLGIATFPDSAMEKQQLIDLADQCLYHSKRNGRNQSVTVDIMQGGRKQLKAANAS

T2 sequence (Q1D632 entry or part of it E614A): as the sequence (Q1D632 entry or part of it R603A) above, with A393R, E404A counted along it

Consider `Nc1nc2c(ncn2[C@@H]2O[C@@H]3COP(=O)(O)O[C@H]4[C@@H](O)[C@H](n5cnc6c(=O)[nH]c(N)nc65)O[C@@H]4COP(=O)(O)O[C@H]3[C@H]2O)c(=O)[nH]1` [c-di-GMP], for which the Ki in assay [1] was around 15 µM. Also, the “bio-layer interferometry, biotinylated c-di-GMP immobilised on streptavidin sens” value in assay [2] is “MalE-DmxA^WT and MalE-DmxA^E626A bound c-di-GMP”.

With “MalE-DmxA^E626A (DmxA residues 223-722 with the catalytic-site substitution E626A) (domain or fragment)”, the stoichiometry N in assay [3] is 2. Consider “MalE-DmxA^WT (DmxA residues 223-722: two GAF domains and the GGDEF domain) (domain or fragment)”, for which the stoichiometry N in assay [4] was 2. As to “MalE-DmxA^GAF×2 (DmxA residues 223-547: only the two GAF domains) (domain or fragment)”, the stoichiometry N in assay [5] was 2.

Take “MalE-DmxA^R615A (DmxA residues 223-722 with the I-site substitution R615A) (domain or fragment)”: the stoichiometry N in assay [6] was 2. For the molecule `Nc1nc2c(ncn2[C@@H]2O[C@H](COP(=O)(O)OP(=O)(O)OP(=O)(O)O)[C@@H](O)[C@H]2O)c(=O)[nH]1` [GTP], the “diguanylate cyclase assay, pyrophosphate release (EnzChek)” value in assay [7] was “MalE-DmxA^WT and MalE-DmxA^R615A had DGC activity”; in assay [8], “MalE-DmxA^WT and MalE-DmxA^R615A had DGC activity”.
